ChEMBL document CHEMBL1122661, “Vinylogous amino acid esters: a new class of inactivators for thiol proteases” (J Med Chem, 1984)
One block for each molecule: values may come before it. Calls of active or inactive are those of the source. The calls are words filed in the database; no cut-off is given here. Where a SMILES comes first, the peptide text is derived from it.

Columns and labels:
Papain [1] = molecular target: T1, Papain (Carica papaya, UniProt P00784); experiment: Inhibitory activity against papain; Weak competitive inhibitor
T1 sequence (P00784 whole entry): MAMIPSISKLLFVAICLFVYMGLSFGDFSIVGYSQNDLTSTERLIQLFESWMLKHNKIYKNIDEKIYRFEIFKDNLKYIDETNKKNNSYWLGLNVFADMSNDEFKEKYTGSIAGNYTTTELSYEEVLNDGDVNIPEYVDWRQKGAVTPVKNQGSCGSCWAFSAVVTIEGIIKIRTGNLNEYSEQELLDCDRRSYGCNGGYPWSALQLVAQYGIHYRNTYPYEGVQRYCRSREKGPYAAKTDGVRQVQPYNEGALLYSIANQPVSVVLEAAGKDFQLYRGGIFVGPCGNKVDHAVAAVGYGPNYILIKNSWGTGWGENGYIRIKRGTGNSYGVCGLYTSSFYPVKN

[2] = Inhibition of hydrolysis of Z-Gly-NPby administration of the compound
Papain (Carica papaya) [3] = molecular target: T2, Papain (Carica papaya) (UniProt P00784); experiment: Inhibitory activity against papain; No detectab inactivation
T2 sequence (whole entry): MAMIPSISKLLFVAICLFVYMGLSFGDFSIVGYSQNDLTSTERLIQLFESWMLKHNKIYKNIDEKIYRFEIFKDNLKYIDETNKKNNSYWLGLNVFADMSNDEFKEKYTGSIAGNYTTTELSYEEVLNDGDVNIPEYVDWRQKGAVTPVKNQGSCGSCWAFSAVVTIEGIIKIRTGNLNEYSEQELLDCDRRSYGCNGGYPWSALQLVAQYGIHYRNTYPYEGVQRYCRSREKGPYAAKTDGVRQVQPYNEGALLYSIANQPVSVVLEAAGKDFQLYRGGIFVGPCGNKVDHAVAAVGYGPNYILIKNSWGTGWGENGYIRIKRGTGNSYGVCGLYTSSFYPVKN

[4] = Inhibition of hydrolysis of Z-Gly-NP by administration of the 1 uM compound; Markedly inhibited
Papain (Carica papaya) [5] = molecular target: T2, Papain (Carica papaya); experiment: Pseudo first order rate constant against papain
Papain [6] = molecular target: T1, Papain; experiment: Inhibitory activity against papain
[7] = substrate: O=C(O)CNC(=O)OCc1ccccc1; experiment: Papain-catalyzed hydrolysis was expressed as Km

Ki (Papain [1]): > 5 mM
Molecule: C=CCNC(=O)C(Cc1ccccc1)NC(C)=O (stereo not drawn)

inhibition [4]: Markedly inhibited
K2 (Papain (Carica papaya) [5]): 0.00182 s⁻¹
Ki (Papain [6]): 0.026 mM
Molecule: COC(=O)/C=C/CNC(=O)C(Cc1ccccc1)NC(C)=O (stereo not drawn)

Ki (Papain [1]): > 5 mM
Molecule: COC(=O)CCCNC(=O)C(Cc1ccccc1)NC(C)=O (stereo not drawn)

Further lines, the molecule ahead of its results:

Molecule: CC(=O)N[C@@H](Cc1ccccc1)C(=O)NCC(N)=O (Ac-Phe-Gly-NH2)
Ki [2]: 4.7 mM

Molecule: COC(=O)/C=C/C(Cc1ccccc1)NC(C)=O (stereo not drawn)
inhibition (Papain (Carica papaya) [3]): inactive

B1: Papain (Carica papaya), P00784 (protein)
chain: MAMIPSISKLLFVAICLFVYMGLSFGDFSIVGYSQNDLTSTERLIQLFESWMLKHNKIYKNIDEKIYRFEIFKDNLKYIDETNKKNNSYWLGLNVFADMSNDEFKEKYTGSIAGNYTTTELSYEEVLNDGDVNIPEYVDWRQKGAVTPVKNQGSCGSCWAFSAVVTIEGIIKIRTGNLNEYSEQELLDCDRRSYGCNGGYPWSALQLVAQYGIHYRNTYPYEGVQRYCRSREKGPYAAKTDGVRQVQPYNEGALLYSIANQPVSVVLEAAGKDFQLYRGGIFVGPCGNKVDHAVAAVGYGPNYILIKNSWGTGWGENGYIRIKRGTGNSYGVCGLYTSSFYPVKN
Km [7]: 10.3 µM
